One data set concerns the target T1, TvIPK (full length) (Terrestrivirus sp., UniProt A0A3G4ZNY6).
T1 construct: gene Terrestrivirus9_15; full-length, codon-optimized, E. coli BL21(DE3); N-terminal His6-MBP tag removed with TEV protease
T1 sequence (A0A3G4ZNY6 1-265): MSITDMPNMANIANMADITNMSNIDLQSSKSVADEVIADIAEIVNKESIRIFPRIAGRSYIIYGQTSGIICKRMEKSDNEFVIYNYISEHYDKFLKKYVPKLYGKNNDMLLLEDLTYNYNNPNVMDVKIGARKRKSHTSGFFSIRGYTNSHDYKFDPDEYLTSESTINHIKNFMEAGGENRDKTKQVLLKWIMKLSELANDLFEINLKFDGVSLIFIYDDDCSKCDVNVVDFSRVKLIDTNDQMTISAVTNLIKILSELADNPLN
Kind of data set: X-ray crystal structure. It counts as binding. The settings on record: co-crystallised with 5 mM ADP, 10 mM MgCl2.

The next data set deals with T2, TvIPK^17-265 (Terrestrivirus sp., UniProt A0A3G4ZNY6).
T2 construct: gene Terrestrivirus9_15; truncated crystallization construct, residues 17-265, E. coli; residues 17-47 not traced; one molecule per asymmetric unit
T2 sequence (A0A3G4ZNY6 17-265): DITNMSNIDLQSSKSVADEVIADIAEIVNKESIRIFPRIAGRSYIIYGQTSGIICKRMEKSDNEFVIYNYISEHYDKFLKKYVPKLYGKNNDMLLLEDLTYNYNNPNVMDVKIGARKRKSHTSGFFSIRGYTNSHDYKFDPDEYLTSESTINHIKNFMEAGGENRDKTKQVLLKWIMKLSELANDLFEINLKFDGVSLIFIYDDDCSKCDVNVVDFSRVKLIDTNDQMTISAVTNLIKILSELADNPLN
Briefly: X-ray crystal structure. It counts as binding. To be noted: Cd2+ in place of Mg2+, soaked 5 mM, Pi present.

Substrate in the data set “HPLC with [gamma-33P]ATP”: Nc1ncnc2c1ncn2[C@@H]1O[C@H](COP(=O)(O)OP(=O)(O)OP(=O)(O)O)[C@@H](O)[C@H]1O
Briefly: HPLC with [gamma-33P]ATP. To be noted: 2 mM myo-IP6, 3.5 mM MgCl2, pH 7.2, 25 °C, labelled compound. Type of data set: biochemical, Terrestrivirus sp.

Substrate in data set [1]: O=P(O)(O)O[C@H]1[C@H](OP(=O)(O)O)[C@@H](OP(=O)(O)O)[C@H](OP(=O)(O)O)[C@@H](OP(=O)(O)O)[C@H]1OP(=O)(O)O
Kind of data set: HPLC of [3H]IP6 pyrophosphorylation. Type of data set: biochemical, Terrestrivirus sp. To be noted: 1 mM ATP, 3.5 mM MgCl2, pH 7.2, 25 °C, creatine kinase / creatine phosphate ATP regeneration, labelled compound.

For orientation: Km means the substrate concentration at which the rate is half of its maximum.

In the case of `Nc1ncnc2c1ncn2[C@@H]1O[C@H](COP(=O)(O)OP(=O)(O)O)[C@@H](O)[C@H]1O` [ADP], the X-ray crystal structure result on TvIPK (full length) was “in a binary complex of full-length TvIPK plus ADP”.

In the case of `Nc1ncnc2c1ncn2[C@@H]1O[C@H](COP(=O)(O)OP(=O)(O)NP(=O)(O)O)[C@@H](O)[C@H]1O` [AMP-PNP], on TvIPK^17-265, the X-ray crystal structure entry is “We also derived crystal complexes with ATP and AMP-PNP”.

As for `Nc1ncnc2c1ncn2[C@@H]1O[C@H](COP(=O)(O)OP(=O)(O)OP(=O)(O)O)[C@@H](O)[C@H]1O` [ATP], the X-ray crystal structure result on TvIPK^17-265 (two ATP conformations) is given as “by making this substitution, we derived an ATP/TvIPK crystal complex”.

B1: TvIPK (full length) (Terrestrivirus sp.) (protein)
chain: MSITDMPNMANIANMADITNMSNIDLQSSKSVADEVIADIAEIVNKESIRIFPRIAGRSYIIYGQTSGIICKRMEKSDNEFVIYNYISEHYDKFLKKYVPKLYGKNNDMLLLEDLTYNYNNPNVMDVKIGARKRKSHTSGFFSIRGYTNSHDYKFDPDEYLTSESTINHIKNFMEAGGENRDKTKQVLLKWIMKLSELANDLFEINLKFDGVSLIFIYDDDCSKCDVNVVDFSRVKLIDTNDQMTISAVTNLIKILSELADNPLN
notes: full-length, codon-optimized, E. coli BL21(DE3); N-terminal His6-MBP tag removed with TEV protease
Consider B1, for which the Km in “HPLC with [gamma-33P]ATP” is 1600 µM; in data set [1], 81 µM.

The record behind these values is PMC10897400, “Biochemical and structural characterization of an inositol pyrophosphate kinase from a giant virus” (The EMBO Journal, 2024).
